Converted amounts (≈) assume the structure as drawn. Read-outs that look alike come from different tables or passages of the source.
How the values were obtained:
[1] = system: HeLa MKYP cells; experiment: Human mitophagy assay (HeLa MKYP, mtKeima FACS, FCCP/oligomycin); assay type: cell-based; conditions: for EC50: Homo sapiens, HeLa
Experimental: Briefly, HeLa MKYP cells were plated at 10,000 cells/well in 96 well plates along with compounds at various concentrations. Following 16 hrs of incubation, cells were treated with 1 uM FCCP/oligomycin for 6 hours, then analyzed via FACS for the presence of mitochondria in lysosomes (as determined by an emissions spectrum shift from the pH-sensitive mtKeima tag). Examples are shown in FIG. 1 through FIG. 13 below.

[2] = Solubility in 1× PBS; assay type: physicochemical
[3] = Visual inspection of crystallization; assay type: physicochemical; design: key: 1: yes crystals; 0: no crystals; conditions: Tables 5A-5D
Experimental: (§2) Briefly, the Hela MKYP (Mito-Keima/YFP-Parkin) cells were seeded at 10K cells/well. EP/MTK compounds were added at seeding (cells were still in suspension). The cells were incubated with the EP/MTK compounds for 16 hours, then 1 μM FCCP/oligomycin was added for 6 hours. Prior to harvesting, cells were scored by eye under 20× magnification for the presence or absence of crystalline or aggregated compound, or round cells.

[4] = target: T1, PINK1 (Homo sapiens, UniProt Q9BXM7); experiment: pS65 Ubiquitin ELISA assay (HeLa-MKYP WT or PINK1 KO); assay type: cell-based; conditions: PINK1wt vs PINK1ko cells, FIG. 17A
T1 construct: for each cell type tested (HeLa-MKYP WT or PINK1^KO); endogenous in cells; host or cells: HeLa-MKYP (WT) / HeLa cells
T1 sequence (Q9BXM7 78-581): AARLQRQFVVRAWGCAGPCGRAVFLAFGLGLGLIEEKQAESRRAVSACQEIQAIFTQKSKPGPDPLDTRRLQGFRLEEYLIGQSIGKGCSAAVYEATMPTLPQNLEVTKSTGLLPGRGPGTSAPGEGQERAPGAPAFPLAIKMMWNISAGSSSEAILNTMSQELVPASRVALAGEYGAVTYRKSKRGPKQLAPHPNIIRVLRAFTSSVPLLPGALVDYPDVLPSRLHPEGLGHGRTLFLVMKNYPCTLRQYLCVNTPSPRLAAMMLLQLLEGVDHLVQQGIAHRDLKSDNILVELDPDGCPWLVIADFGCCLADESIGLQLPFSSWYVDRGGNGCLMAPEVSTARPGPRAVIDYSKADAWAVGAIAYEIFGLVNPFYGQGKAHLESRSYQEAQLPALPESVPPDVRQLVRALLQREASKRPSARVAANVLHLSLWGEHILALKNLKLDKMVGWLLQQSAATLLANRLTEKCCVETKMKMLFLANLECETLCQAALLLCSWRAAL
Experimental: HeLa-MKYP cells were plated at 10,000 cells/well in 96-well plates along with compounds at various concentrations. Following 16 hours of incubation, cells were treated with 1 μM FCCP/oligomycin (F/O) along with compounds at various doses for 2-3 hours. Appropriate controls were included on each plate to obtain a maximum signal from treatment with 10 μM F/O or, and a minimum signal from cells treated with no F/O with DMSO for each cell type tested (HeLa-MKYP WT or PINK1^KO). At the desired timepoint, media was removed and cells were frozen prior to lysis. Cells lysates were denatured by boiling, prior to analysis by a custom ELISA assay using commercially available antibodies (using anti-phospho-ubiquitin as a capturing antibody, and anti-total ubiquitin as a detection antibody). Purified pS65 ubiquitin was used to generate a standard curve and determine timing for ELISA reaction development.

[5] = system: PINK1/parkin pathway; experiment: Parkin recruitment to mitochondria, live cell imaging; assay type: cell-based, human; conditions: PINK1wt vs PINK1ko cells, FIG. 18
Experimental: When the PINK1/parkin pathway is activated by FCCP, PINK1 is stabilized on the mitochondrial membrane, and its activity leads to the recruitment of parkin to the mitochondria (Narendra et al., PLoS Biol 2010; Narendra et al., J. Cell Biol 2008; Vives-Bauza et al., PNAS 2009). The aim of this assay is to test how MTK compounds affect the speed of parkin recruitment to the mitochondria. Briefly, HeLa-MKYP cells were plated at 7,000 cells/well in 96-well plates along with compounds at various concentrations. Following 16 hours of incubation, cells were treated in phenol-free media with 1 μM FCCP/oligomycin (F/O) along with compounds at various doses for 2-3 hours. Immediately following addition of new media, the cell treatment plate was transferred to a CO2 and temperature-regulated chamber in a high-content imaging microscope [Molecular Devices], to acquire images from live cells at regular intervals during the treatment timecourse. Appropriate controls were included on each plate to obtain a maximum signal from treatment with 2 μM F/O, or a minimum signal from cells treated with no F/O with DMSO for each cell type tested (HeLa-MKYP WT or PINK1^KO). Images were analyzed using MetaExpress 6 software package, and automatically processed after setting thresholds to define overlap between the YFP-parkin signal and red mitochondrial signal based on controls. […]

[6] = In vivo pharmacokinetic properties (Table 7)
[7] = In vivo summary, pharmacokinetics, mouse
Experimental: (§1) Referring to Tables 8A-C below, an in vivo summary of EP-0035985 IV at 1 mg/kg (8A), PO 10 mg/kg (8B), and a tissue distribution, mouse (8C) is shown below.

[8] = Tissue distribution, mouse; assay type: in vivo
Experimental: as §1

[9] = system: Hela MKYP (Mito-Keima/YFP-Parkin) cells; experiment: Inspection of round cells; conditions: Tables 6A-6D
Experimental: as §2

FC(F)(F)c1cc2c(NC3CCCc4ccccc43)ncnc2[nH]1 (stereo not drawn) [Compound 15]
EC50 ([1]; Table 3 Supplement B, read-out: Mitophagy EC50 (HeLa mKeima assay)): 0.44 ± 0.12 µM | EC50 ([1]; Table 4, read-out: Potency (EC50 Max Mitophagy)): 0.44 ± 0.12 µM | mitophagy as measured by FACS mKeima ([1]; PINK1wt vs PINK1ko cell lines, FIG. 19): increases mitophagy as measured by FACS mKeima in PINK1^wt but not PINK1^ko cell lines | Potency at 1 μM F/O toxin* ([1]; Table 2, % activation of mitophagy at 1.6 μM treatment of the compound): 55.5% | solubility [2]: 1 µM (≈ 0.332 µg/mL) | Visual inspection of crystallization ([3]; 1.6 μM): 0 | Visual inspection of crystallization ([3]; 3.1 μM): 0 | Visual inspection of crystallization ([3]; 6.3 μM): 0 | Visual inspection of crystallization ([3]; 12.5 μM): 0 | Visual inspection of crystallization ([3]; 25.0 μM): 0 | Visual inspection of crystallization ([3]; 50.0 μM): 0 | pS65 Ub (PINK1 substrate phosphorylation) [4]: significant increase in pS65 Ub in PINK1^wt cells but not in PINK1^ko cell lines | rate of Parkin recruitment [5]: increases the rate of Parkin recruitment in PINK1^wt but not PINK1^ko cells | AUC (obs) ([6]; IV (1 mg/kg)): 1400 nM·h | Cmax ([6]; IV (1 mg/kg)): 1.45 µM | Cmax ([6]; PO (10 mg/kg)): 1.08 µM | F % ([6]; PO (10 mg/kg)): 17.4% | AUC (obs) ([6]; PO (50 mg/kg)): 27400 nM·h | Cmax ([6]; PO (50 mg/kg)): 9.8 µM | F % ([6]; PO (50 mg/kg)): 37.9% | T1/2 ([6]; PO (50 mg/kg)): 3.9 h | bioavailability ([6]; in vivo dosing, FIG. 23 and Table 7): good bioavailability | AUC(0-inf) ([6]; mouse, in vivo, IV (1 mg/kg)): 1500 nM·h | half-life ([6]; mouse, in vivo, IV (1 mg/kg)): 1.4 h | AUC ([6]; mouse, in vivo, PO (10 mg/kg)): 2400 nM·h | AUC(0-inf) ([6]; mouse, in vivo, PO (10 mg/kg)): 2600 nM·h | half-life ([6]; mouse, in vivo, PO (10 mg/kg)): 2 h | AUC(0-inf) ([6]; mouse, in vivo, PO (50 mg/kg)): 35500 nM·h | AUCExtr ([7]; IV at 1 mg/kg, Table 8A): 1.1% | AUClast ([7]; IV at 1 mg/kg, Table 8A): 0.4813 µg·h/mL | C0 ([7]; IV at 1 mg/kg, Table 8A): 1569.0 ng/mL | CL ([7]; IV at 1 mg/kg, Table 8A): 2.06 L/h/kg | MRTlnf ([7]; IV at 1 mg/kg, Table 8A): 0.7 h | T1/2 ([7]; IV at 1 mg/kg, Table 8A): 1.4 h | Vss ([7]; IV at 1 mg/kg, Table 8A): 1.5 L/kg | Vz ([7]; IV at 1 mg/kg, Table 8A): 4.0 L/kg | AUClast ([7]; PO 10 mg/kg, Table 8B): 0.3573 µg·h/mL | AUClnf ([7]; PO 10 mg/kg, Table 8B): 0.8033 µg·h/mL | MRTlnf ([7]; PO 10 mg/kg, Table 8B): 17.4 h | Vss ([7]; PO 10 mg/kg, Table 8B): 2.5 L/kg | AUC ([7]; in vivo, IV at 1 mg/kg, Table 8A): 0.487 µg·h/mL | C0 ([7]; in vivo, PO 10 mg/kg, Table 8B, read-out: C0): 0.5 ng/mL | concentration at 0.5 h ([8]; brain, dose 10 mg/kg, read-out: Brain 0.5 h): 526 ng/g | concentration at 1 h ([8]; brain, dose 10 mg/kg, read-out: Brain 1 h): 737 ng/g | concentration at 2 h ([8]; brain, dose 10 mg/kg, read-out: Brain 2 h): 435 ng/g | concentration at 0.5 h ([8]; brain, dose 50 mg/kg, read-out: Brain 0.5 h): 3340 ng/g | concentration at 1 h ([8]; brain, dose 50 mg/kg, read-out: Brain 1 h): 6370 ng/g | concentration at 2 h ([8]; brain, dose 50 mg/kg, read-out: Brain 2 h): 3980 ng/g | concentration at 0.5 h ([8]; kidney, dose 10 mg/kg, read-out: Kidney 0.5): 1050 ng/g | concentration at 1 h ([8]; kidney, dose 10 mg/kg, read-out: Kidney 1): 1290 ng/g | concentration at 2 h ([8]; kidney, dose 10 mg/kg, read-out: Kidney 2): 893 ng/g | concentration at 0.5 h ([8]; kidney, dose 50 mg/kg, read-out: Kidney 0.5): 6430 ng/g | concentration at 1 h ([8]; kidney, dose 50 mg/kg, read-out: Kidney 1): 11500 ng/g | concentration at 2 h ([8]; kidney, dose 50 mg/kg, read-out: Kidney 2): 7480 ng/g | concentration at 0.5 h ([8]; plasma, dose 10 mg/kg, read-out: Plasma 0.5 h): 372 ng/g | concentration at 1 h ([8]; plasma, dose 10 mg/kg, read-out: Plasma 1 h): 276 ng/g | concentration at 2 h ([8]; plasma, dose 10 mg/kg, read-out: Plasma 2 h): 146 ng/g | concentration at 0.5 h ([8]; plasma, dose 50 mg/kg, read-out: Plasma 0.5 h): 1900 ng/g | concentration at 1 h ([8]; plasma, dose 50 mg/kg, read-out: Plasma 1 h): 2080 ng/g | concentration at 2 h ([8]; plasma, dose 50 mg/kg, read-out: Plasma 2 h): 1420 ng/g | Inspection of round cells ([9]; 1.6 μM): 0 | Inspection of round cells ([9]; 3.1 μM): 0 | Inspection of round cells ([9]; 6.3 μM): 0 | Inspection of round cells ([9]; 12.5 μM): 0 | Inspection of round cells ([9]; 25.0 μM): 0 | Inspection of round cells ([9]; 50.0 μM): 0
